Patent publication US20080031982A1 (Metaproteomics, LLC, priority 2006, published 2008)

Assays:
Assay in all cases: KinaseProfiler Assay
[1] = target: GSK3α (Homo sapiens, UniProt P49840)
[2] = target: Fer (Homo sapiens, UniProt P16591)
[3] = target: Syk (Homo sapiens, UniProt P43405)
[4] = target: CDK5/p35 (Homo sapiens, UniProt Q00535)
[5] = target: Ron (Homo sapiens, UniProt Q04912)
[6] = target: CDK2/cyclinA (Homo sapiens, UniProt P24941)
[7] = target: T1, JAK3 (Homo sapiens, UniProt P52333)
T1 sequence (P52333 1-1124): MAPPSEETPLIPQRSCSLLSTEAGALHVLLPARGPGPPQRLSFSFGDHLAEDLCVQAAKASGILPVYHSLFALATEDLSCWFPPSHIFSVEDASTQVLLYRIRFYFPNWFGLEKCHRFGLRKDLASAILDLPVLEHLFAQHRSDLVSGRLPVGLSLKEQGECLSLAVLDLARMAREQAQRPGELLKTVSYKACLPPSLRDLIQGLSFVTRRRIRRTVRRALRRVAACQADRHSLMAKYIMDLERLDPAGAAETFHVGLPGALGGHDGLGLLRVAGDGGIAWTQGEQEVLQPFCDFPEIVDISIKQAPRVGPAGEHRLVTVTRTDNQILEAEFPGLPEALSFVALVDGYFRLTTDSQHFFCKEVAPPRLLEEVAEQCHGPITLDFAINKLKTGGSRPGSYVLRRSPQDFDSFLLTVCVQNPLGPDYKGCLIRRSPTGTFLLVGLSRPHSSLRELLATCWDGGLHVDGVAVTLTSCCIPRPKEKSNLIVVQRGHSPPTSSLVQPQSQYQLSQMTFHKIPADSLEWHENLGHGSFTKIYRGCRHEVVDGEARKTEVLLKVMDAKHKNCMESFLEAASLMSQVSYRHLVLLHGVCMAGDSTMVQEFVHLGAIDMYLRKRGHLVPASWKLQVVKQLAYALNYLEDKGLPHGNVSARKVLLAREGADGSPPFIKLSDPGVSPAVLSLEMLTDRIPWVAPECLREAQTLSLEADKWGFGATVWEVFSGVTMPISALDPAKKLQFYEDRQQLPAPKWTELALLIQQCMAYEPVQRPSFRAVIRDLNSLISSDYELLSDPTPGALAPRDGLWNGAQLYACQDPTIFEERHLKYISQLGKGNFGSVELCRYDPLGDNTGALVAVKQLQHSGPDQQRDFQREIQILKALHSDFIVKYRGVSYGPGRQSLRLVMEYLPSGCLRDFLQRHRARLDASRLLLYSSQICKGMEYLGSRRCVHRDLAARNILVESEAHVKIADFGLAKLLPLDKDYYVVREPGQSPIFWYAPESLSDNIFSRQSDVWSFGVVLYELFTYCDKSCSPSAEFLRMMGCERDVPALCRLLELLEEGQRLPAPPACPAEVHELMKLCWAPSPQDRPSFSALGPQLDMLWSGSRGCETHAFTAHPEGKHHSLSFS

[8] = target: PAK5 (Homo sapiens, UniProt Q9P286)
Sequence of PAK5 (Q9P286 whole entry): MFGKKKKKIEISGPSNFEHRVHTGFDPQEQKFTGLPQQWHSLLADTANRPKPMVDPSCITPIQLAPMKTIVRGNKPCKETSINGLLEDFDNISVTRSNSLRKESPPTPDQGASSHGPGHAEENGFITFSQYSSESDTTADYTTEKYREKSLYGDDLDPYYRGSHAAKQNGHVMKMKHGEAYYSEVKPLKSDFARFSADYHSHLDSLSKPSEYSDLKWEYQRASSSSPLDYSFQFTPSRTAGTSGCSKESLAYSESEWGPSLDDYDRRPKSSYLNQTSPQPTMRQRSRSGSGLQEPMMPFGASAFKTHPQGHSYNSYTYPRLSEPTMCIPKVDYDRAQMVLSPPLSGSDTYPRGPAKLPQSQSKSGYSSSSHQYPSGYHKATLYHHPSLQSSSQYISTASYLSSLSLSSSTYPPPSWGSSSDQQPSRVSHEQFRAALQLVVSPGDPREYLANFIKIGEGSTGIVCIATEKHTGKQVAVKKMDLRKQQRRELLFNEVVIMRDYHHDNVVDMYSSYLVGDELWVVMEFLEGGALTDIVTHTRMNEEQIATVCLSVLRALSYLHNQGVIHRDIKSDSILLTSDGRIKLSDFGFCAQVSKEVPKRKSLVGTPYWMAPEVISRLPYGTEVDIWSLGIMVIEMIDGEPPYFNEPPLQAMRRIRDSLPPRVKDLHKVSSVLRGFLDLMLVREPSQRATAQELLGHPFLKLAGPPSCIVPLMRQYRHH

[9] = target: CK1δ (Homo sapiens, UniProt P48730)
Sequence of CK1δ (P48730 whole entry): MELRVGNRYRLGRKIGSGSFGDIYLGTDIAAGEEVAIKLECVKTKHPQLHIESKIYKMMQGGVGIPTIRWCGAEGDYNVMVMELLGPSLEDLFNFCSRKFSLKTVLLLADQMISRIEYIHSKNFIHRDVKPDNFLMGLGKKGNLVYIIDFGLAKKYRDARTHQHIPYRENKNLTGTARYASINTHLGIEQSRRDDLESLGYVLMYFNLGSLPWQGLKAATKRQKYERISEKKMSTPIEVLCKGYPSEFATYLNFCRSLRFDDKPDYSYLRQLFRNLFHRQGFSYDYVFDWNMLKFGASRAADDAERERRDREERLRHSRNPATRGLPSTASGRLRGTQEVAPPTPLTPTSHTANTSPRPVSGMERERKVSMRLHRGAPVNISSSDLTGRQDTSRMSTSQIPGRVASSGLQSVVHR

[10] = target: PKA (Homo sapiens, UniProt P17612)
[11] = target: CK1γ3 (Homo sapiens, UniProt Q9Y6M4)
[12] = test system: Rsk1
[13] = target: Ros (Homo sapiens, UniProt P08922)
[14] = target: MINK (Homo sapiens, UniProt Q8N4C8)
Sequence of MINK (Q8N4C8 whole entry): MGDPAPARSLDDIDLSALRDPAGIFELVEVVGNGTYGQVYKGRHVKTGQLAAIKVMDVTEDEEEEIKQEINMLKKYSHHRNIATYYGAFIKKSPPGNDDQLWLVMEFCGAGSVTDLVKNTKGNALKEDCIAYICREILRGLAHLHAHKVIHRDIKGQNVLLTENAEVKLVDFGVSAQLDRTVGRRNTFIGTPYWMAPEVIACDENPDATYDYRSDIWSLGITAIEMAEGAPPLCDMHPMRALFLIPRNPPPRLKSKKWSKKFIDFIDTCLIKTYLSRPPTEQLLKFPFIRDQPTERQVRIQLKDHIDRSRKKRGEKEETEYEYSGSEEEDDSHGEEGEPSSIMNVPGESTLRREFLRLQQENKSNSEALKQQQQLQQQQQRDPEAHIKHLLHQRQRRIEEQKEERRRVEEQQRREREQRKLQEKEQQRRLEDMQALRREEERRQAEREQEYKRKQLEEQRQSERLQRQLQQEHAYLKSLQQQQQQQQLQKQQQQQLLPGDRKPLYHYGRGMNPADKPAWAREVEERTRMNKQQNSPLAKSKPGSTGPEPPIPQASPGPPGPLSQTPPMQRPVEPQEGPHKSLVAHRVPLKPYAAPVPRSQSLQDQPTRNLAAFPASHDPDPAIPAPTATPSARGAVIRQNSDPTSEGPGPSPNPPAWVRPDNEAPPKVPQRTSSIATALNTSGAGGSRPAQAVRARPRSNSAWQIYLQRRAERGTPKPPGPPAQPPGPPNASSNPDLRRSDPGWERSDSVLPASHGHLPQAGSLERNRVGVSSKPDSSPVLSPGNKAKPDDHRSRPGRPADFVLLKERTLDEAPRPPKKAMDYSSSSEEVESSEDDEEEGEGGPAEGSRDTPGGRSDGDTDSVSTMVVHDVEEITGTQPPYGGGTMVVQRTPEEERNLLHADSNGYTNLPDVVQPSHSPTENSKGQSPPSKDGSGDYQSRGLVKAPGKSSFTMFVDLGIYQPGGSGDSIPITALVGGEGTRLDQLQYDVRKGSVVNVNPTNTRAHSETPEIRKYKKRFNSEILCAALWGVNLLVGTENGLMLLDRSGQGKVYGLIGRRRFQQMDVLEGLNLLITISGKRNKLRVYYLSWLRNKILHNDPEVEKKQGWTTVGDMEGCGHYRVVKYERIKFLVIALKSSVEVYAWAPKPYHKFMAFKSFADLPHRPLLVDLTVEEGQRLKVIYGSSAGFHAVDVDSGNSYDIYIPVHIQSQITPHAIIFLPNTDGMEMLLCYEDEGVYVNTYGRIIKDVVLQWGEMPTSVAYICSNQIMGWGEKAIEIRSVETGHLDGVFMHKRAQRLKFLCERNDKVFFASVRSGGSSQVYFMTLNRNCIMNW

[15] = target: ZIPK (Homo sapiens, UniProt O43293)
[16] = target: TrkA (Homo sapiens, UniProt P04629)

Sequence of Fer (P16591 whole entry): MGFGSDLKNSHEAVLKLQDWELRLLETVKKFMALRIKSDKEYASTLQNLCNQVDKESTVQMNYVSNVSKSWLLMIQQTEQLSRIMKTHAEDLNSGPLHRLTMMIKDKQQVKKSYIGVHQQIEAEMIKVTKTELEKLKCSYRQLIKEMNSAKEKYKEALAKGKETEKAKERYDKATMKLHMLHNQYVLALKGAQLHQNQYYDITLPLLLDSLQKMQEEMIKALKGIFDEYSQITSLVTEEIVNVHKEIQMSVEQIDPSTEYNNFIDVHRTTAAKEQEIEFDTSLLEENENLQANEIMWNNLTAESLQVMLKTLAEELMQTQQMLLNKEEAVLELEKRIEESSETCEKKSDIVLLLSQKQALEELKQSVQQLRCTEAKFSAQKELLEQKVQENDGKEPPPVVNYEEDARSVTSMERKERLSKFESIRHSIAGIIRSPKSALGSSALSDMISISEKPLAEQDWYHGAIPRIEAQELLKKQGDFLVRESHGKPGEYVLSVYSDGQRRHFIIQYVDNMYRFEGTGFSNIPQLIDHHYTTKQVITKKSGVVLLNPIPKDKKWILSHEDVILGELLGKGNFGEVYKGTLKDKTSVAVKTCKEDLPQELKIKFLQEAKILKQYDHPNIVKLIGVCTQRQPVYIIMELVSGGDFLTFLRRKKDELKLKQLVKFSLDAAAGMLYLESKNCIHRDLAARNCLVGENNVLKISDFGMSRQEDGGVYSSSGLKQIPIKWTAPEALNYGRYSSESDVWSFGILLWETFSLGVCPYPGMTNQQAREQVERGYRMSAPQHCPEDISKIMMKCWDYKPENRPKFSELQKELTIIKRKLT
Sequence of Ron (Q04912 25-1400): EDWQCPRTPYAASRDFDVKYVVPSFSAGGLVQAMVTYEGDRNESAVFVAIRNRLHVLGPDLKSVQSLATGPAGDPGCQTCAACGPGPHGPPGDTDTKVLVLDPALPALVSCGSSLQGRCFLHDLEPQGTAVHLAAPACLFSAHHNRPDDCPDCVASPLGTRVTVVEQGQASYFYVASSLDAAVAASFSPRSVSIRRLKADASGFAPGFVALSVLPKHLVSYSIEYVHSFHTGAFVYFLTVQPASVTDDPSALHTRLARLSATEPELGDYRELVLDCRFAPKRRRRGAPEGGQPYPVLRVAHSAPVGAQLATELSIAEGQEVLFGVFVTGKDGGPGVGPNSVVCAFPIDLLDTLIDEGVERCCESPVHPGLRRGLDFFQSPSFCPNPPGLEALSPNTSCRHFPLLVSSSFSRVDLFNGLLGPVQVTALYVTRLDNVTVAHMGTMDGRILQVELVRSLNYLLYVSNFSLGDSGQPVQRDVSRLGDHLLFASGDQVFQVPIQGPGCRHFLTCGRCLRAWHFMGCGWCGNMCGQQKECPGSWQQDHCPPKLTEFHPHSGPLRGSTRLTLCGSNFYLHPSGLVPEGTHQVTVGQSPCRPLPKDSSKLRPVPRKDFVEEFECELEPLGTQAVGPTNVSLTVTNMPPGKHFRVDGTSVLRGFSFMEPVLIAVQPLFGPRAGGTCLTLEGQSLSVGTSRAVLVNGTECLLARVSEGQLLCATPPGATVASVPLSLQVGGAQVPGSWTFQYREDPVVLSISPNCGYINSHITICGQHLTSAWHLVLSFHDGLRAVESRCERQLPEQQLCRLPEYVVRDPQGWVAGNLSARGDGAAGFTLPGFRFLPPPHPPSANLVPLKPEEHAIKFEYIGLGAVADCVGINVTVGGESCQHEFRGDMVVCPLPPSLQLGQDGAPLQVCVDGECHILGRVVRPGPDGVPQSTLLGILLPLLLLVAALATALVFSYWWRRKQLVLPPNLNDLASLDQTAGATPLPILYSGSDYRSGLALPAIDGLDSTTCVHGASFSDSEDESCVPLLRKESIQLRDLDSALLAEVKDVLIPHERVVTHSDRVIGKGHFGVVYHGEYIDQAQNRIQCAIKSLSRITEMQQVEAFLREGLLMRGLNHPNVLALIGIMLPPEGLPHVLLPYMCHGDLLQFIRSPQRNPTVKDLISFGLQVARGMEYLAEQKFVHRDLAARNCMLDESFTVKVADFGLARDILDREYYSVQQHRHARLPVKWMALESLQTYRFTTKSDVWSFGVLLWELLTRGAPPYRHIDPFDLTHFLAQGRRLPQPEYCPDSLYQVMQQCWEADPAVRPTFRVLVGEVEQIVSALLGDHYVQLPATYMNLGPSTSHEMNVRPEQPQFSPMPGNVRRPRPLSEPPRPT

Compound: COc1cc(O)c(CC=C(C)C)c(O)c1C(=O)/C=C/c1ccc(O)cc1 [Xanthohumol, xanthohumol]
- Kinase activity, % of Control ([1]; 1 ug/ml): 102 % of Control
- Kinase activity, % of Control ([1]; 25 ug/ml): 11 % of Control
- Kinase activity, % of Control ([1]; 50 ug/ml): −4 % of Control
- Kinase activity, % of Control ([2]; 1 ug/ml): 55 % of Control
- Kinase activity, % of Control ([2]; 5 ug/ml): 20 % of Control
- Kinase activity, % of Control ([2]; 25 ug/ml): 10 % of Control
- Kinase activity, % of Control ([2]; 50 ug/ml): 1 % of Control
- Kinase activity, % of Control ([3]; 1 ug/ml): 95 % of Control
- Kinase activity, % of Control ([3]; 5 ug/ml): 60 % of Control
- Kinase activity, % of Control ([3]; 25 ug/ml): 32 % of Control
- Kinase activity, % of Control ([3]; 50 ug/ml): 17 % of Control
- Kinase activity, % of Control ([4]; 1 ug/ml): 103 % of Control
- Kinase activity, % of Control ([4]; 5 ug/ml): 102 % of Control
- Kinase activity, % of Control ([4]; 25 ug/ml): 41 % of Control
- Kinase activity, % of Control ([4]; 50 ug/ml): 44 % of Control
- Kinase activity, % of Control ([5]; 1 ug/ml): 135 % of Control
- Kinase activity, % of Control ([5]; 5 ug/ml): 127 % of Control
- Kinase activity, % of Control ([5]; 25 ug/ml): 60 % of Control
- Kinase activity, % of Control ([5]; 50 ug/ml): 69 % of Control
- Kinase activity, % of Control ([6]; 1 ug/ml): 107 % of Control
- Kinase activity, % of Control ([6]; 5 ug/ml): 96 % of Control
- Kinase activity, % of Control ([6]; 25 ug/ml): 57 % of Control
- Kinase activity, % of Control ([6]; 50 ug/ml): 6 % of Control
- Kinase activity, % of Control ([7]; 1 ug/ml): 104 % of Control
- Kinase activity, % of Control ([7]; 5 ug/ml): 84 % of Control
- Kinase activity, % of Control ([7]; 25 ug/ml): 17 % of Control
- Kinase activity, % of Control ([7]; 50 ug/ml): 5 % of Control
- Kinase activity, % of Control ([8]; 1 ug/ml): 106 % of Control
- Kinase activity, % of Control ([8]; 5 ug/ml): 99 % of Control
- Kinase activity, % of Control ([8]; 25 ug/ml): 42 % of Control
- Kinase activity, % of Control ([8]; 50 ug/ml): 5 % of Control
- Kinase activity, % of Control ([9]; 5 ug/ml): 32 % of Control
- Kinase activity, % of Control ([9]; 25 ug/ml): 16 % of Control
- Kinase activity, % of Control ([9]; 50 ug/ml): 12 % of Control
- Kinase activity, % of Control ([10]; 1 ug/ml): 105 % of Control
- Kinase activity, % of Control ([10]; 5 ug/ml): 109 % of Control
- Kinase activity, % of Control ([10]; 25 ug/ml): 98 % of Control
- Kinase activity, % of Control ([10]; 50 ug/ml): 21 % of Control
- Kinase activity, % of Control ([11]; 1 ug/ml): 98 % of Control
- Kinase activity, % of Control ([11]; 5 ug/ml): 51 % of Control
- Kinase activity, % of Control ([11]; 25 ug/ml): 22 % of Control
- Kinase activity, % of Control ([11]; 50 ug/ml): 15 % of Control
- Kinase activity, % of Control ([12]; 1 ug/ml): 34 % of Control
- Kinase activity, % of Control ([12]; 5 ug/ml): 49 % of Control
- Kinase activity, % of Control ([12]; 25 ug/ml): 4 % of Control
- Kinase activity, % of Control ([12]; 50 ug/ml): 0 % of Control
- Kinase activity, % of Control ([13]; 1 ug/ml): 101 % of Control
- Kinase activity, % of Control ([13]; 5 ug/ml): 99 % of Control
- Kinase activity, % of Control ([13]; 25 ug/ml): 85 % of Control
- Kinase activity, % of Control ([13]; 50 ug/ml): 94 % of Control
- Kinase activity, % of Control ([14]; 1 ug/ml): 42 % of Control
- Kinase activity, % of Control ([14]; 5 ug/ml): 10 % of Control
- Kinase activity, % of Control ([14]; 25 ug/ml): 5 % of Control
- Kinase activity, % of Control ([14]; 50 ug/ml): 7 % of Control
- Kinase activity, % of Control ([15]; 1 ug/ml): 115 % of Control
- Kinase activity, % of Control ([15]; 5 ug/ml): 74 % of Control
- Kinase activity, % of Control ([15]; 25 ug/ml): 20 % of Control
- Kinase activity, % of Control ([15]; 50 ug/ml): 70 % of Control
- Kinase activity, % of Control ([16]; 1 ug/ml): 36 % of Control
- Kinase activity, % of Control ([16]; 5 ug/ml): 19 % of Control
- Kinase activity, % of Control ([16]; 25 ug/ml): 8 % of Control
- Kinase activity, % of Control ([16]; 50 ug/ml): 3 % of Control
